One block for each compound: values may come before it.
Legend:
[1] = molecular target: T1, TWIK-1 (Homo sapiens, UniProt O00180); test: Imposed voltage (two-microelectrode voltage-clamp) recording of TWIK-1 K+ currents in Xenopus oocytes injected with TWIK-1 cRNA; assay type: cell-based; parameters: expressed in transfected cells; host or cells: Xenopus laevis oocytes injected with cRNA transcribed from pEXO-TWIK-1; details: for sensitivity of the TWIK-1 channel to K+ channel openers: 100 μM
T1 sequence (O00180 1-336): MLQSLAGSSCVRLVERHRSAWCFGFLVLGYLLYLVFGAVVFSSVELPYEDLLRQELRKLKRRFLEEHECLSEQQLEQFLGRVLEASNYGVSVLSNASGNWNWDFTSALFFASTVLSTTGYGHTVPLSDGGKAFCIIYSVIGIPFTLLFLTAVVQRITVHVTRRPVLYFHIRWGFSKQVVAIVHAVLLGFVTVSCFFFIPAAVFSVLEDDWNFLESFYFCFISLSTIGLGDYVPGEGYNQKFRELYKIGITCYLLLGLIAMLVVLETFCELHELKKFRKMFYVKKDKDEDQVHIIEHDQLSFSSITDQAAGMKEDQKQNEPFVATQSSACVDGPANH
Method: A complementary RNA (cRNA) was transcribed of this construction and injected in the oocytes of X. laevis.
The TWIK-1 coding sequence was amplified using a low-error rate DNA polymerase (Pwo DNA pol, Boehringer) and subcloned in the plasmid pEXOii so as to yield pEXO-TWIK-1. Mutations were performed using the whole plasmid pEXO-TWIK-1 with a highly reliable PCR extension kit (Boehringer) and two adjacent primers. […] The product of the PCR was linearized by the enzyme BamHI and the cRNA were synthesized using a T7 RNA polymerase (Stratagene).
In a 0.3-ml perfusion chamber, a single oocyte was impaled on two standard glass microelectrodes (0.5–2.0 MW) charged with 3 M KCl and maintained under voltage-clamp with a Dagan TEV200 amplifier. […] Stimulation of the preparation, data acquisition and analyses were carried out with the pClamp program (Axon Instruments, USA).

[2] = molecular target: T1, TWIK-1; test: Single channel patch-clamp recordings (attached and inside-out patch) of TWIK-1 in oocytes
Method: The pipettes were filled with a strong K^+ solution (40 mM KCl, 100 mM of potassium methane sulfonate, 1.8 mM CaCl2, 2 m M MgCl2 and 5 mM HEPES adjusted to pH 7.4 with KOH). 100 μM of GdCl3 was added to the pipette solution to inhibit the action of the activated channels. The inside-out patches were perfused with a solution containing 140 m M KCl, 10 mM CaCl2, 5 mM HEPES adjusted to pH 7.2 with KOH and 5 mM EGTA added daily. The single channel signals were filtered at 3.5 kHz and analyzed with the Biopatch program (Bio-Logic, Grenoble, France).

[3] = read-out: inhibition of TWIK-1 currents

- sensitivity of the TWIK-1 channel to K+ channel openers [1]: not sensitive
Structure (SMILES): CC1(C)Oc2ccc(C#N)cc2C(N2CCCC2=O)C1O (stereo not drawn) [cromakaline]

Structure (SMILES): CC[N+](CC)(CC)CC [TEA]
- inhibition of TWIK-1 currents ([1]; 20 mM): 30%

Structure (SMILES): Nc1ncnc2c1ncn2[C@@H]1O[C@H](COP(=O)(O)OP(=O)(O)OP(=O)(O)O)[C@@H](O)[C@H]1O [ATP]
- effect on the activity of the TWIK-1 channel ([2]; excised patch perfused with 10 mM): does not induce any effect

Structure (SMILES): CCCCCCCCCC(=O)O[C@@H]1[C@@H](C)[C@@]2(O)[C@@H](C=C(CO)C[C@@]3(O)C(=O)C(C)=C[C@@H]23)[C@@H]2C(C)(C)[C@]12OC(=O)CCCCCCCCC [PDA, 4α-phorbol-12, 13 didecanoate]
- effect on the TWIK-1 currents ([1]; 1 μM): has no effect

Structure (SMILES): Nc1ccncc1 [4-aminopyridine]
- inhibition at 1000 µM ([1]; 1 mM): < 10%

- sensitivity of the TWIK-1 channel to K+ channel openers [1]: not sensitive
Structure (SMILES): CC(N/C(=N\C#N)Nc1ccncc1)C(C)(C)C (stereo not drawn) [pinacidil]

- inhibition at 30 µM [1]: < 10%
Structure (SMILES): COc1ccc(Cl)cc1C(=O)NCCc1ccc(S(=O)(=O)NC(=O)NC2CCCCC2)cc1 [glibenclamide]

- effect on the activity of TWIK-1 ([1]; 300 μM): does not affect
Structure (SMILES): Nc1ncnc2c1nc(Cl)n2[C@@H]1O[C@@H]2COP(=O)(O)O[C@H]2[C@H]1O [8-Cl-AMPc]

Structure (SMILES): CC(C)C[C@@H]1NC(=O)[C@H](C)NC(=O)[C@H]([C@@H](C)O)NC(=O)[C@H](CCC(=O)O)NC(=O)[C@@H]2CCCN2C(=O)[C@H](C)NC(=O)[C@H](CCCCN)NC(=O)[C@@H]2CSSC[C@@H](C(=O)N[C@@H](CCC(N)=O)C(=O)N[C@@H](CCC(N)=O)C(=O)N[C@@H](Cc3cnc[nH]3)C(N)=O)NC(=O)[C@H](CCCNC(=N)N)NC(=O)[C@H](CCCNC(=N)N)NC(=O)[C@H](C)NC(=O)[C@H](CSSC[C@H](N)C(=O)N[C@@H](CC(N)=O)C(=O)N2)NC1=O [apamin]
- inhibition at 0.3 µM [1, 3]: < 10%

- inhibition at 30 µM [1]: < 10%
Structure (SMILES): CCCCCCC[N+](CC)(CC)CCCCc1ccc(Cl)cc1 [clofilium]

Structure (SMILES): CCCCCCCCCCCCCC(=O)O[C@@H]1[C@@H](C)[C@@]2(O)[C@@H](C=C(CO)C[C@]3(O)C(=O)C(C)=C[C@@H]23)[C@@H]2C(C)(C)[C@]12OC(C)=O [PMA, phorbol-12 myristate acetate]
- effect on the TWIK-1 currents ([1]; 30 nM, perfusion 10 minutes): increases the TWIK-1 currents
- channels revealed in an attached patch initially expressing a single channel ([2]; attached patch, 30 nM PMA, +60 mV): at least five channels

- reduction in the TWIK-1 currents (of control amplitude) ([1]; intracellular acidification by superfusion with CO2-enriched solution): greater than 95%
- sensitivity of channel activity to acidification of the internal solution ([2]; after excision of the patch, bubbling of CO2): insensitive
Structure (SMILES): O=C=O [CO2]

Structure (SMILES): CCCCc1oc2ccccc2c1C(=O)c1cc(I)c(OCCN(CC)CC)c(I)c1 [amiodarone]
- inhibition at 100 µM [1, 3]: < 10%

Structure (SMILES): O=[N+]([O-])c1ccc(O)c([N+](=O)[O-])c1 [DNP, dinitrophenol]
- reduction in the TWIK-1 currents (of control amplitude) ([1]; intracellular acidification by DNP, 1 mM): 80%

Structure (SMILES): CNc1ccc2oc(C[C@H]3O[C@@]4(CC[C@H]3C)O[C@H]([C@H](C)C(=O)c3ccc[nH]3)[C@H](C)C[C@H]4C)nc2c1C(=O)O [A23187]
- effect on the properties of the TWIK-1 channel ([1]; 1 μM, elevation of cytoplasmic Ca2+): without effect

Structure (SMILES): [Ba+2] [Ba^2+]
- IC50 ([1]; Xenopus oocytes, +30 mV depolarization from HP -80 mV, read-out: IC50 of inhibition of the K+ currents of TWIK-1): 100 µM
